# From US9962383B2, “Compounds, compositions and methods of agelastatin alkaloids” (Massachusetts Institute of Technology, priority 2013, dated 2018)
# Tests used:
# [1] = system: Daudi; assay: 48-hour IC50 by MTS, Daudi Burkitt's lymphoma cells; assay type: cell-based, human
# Method: (§1) Cells were grown in media supplemented with fetal bovine serum (FBS) and antibiotics (100 μg/mL penicillin and 100 U/mL streptomycin). […] Cells were incubated at 37° C. in a 5% CO2, 95% humidity atmosphere.
# (§2) In a 96-well plate, compounds were pre-added as DMSO stocks (1% final) in triplicate to achieve final concentrations of 1 nM to 10 μM on a half log scale. DMSO and cell-free wells served as the live and dead control, respectively. […] IC50 values were determined from three or more independent experiments using TableCurve (San Jose, Calif.).
# [2] = system: IMR90; assay: 48-hour IC50 by SRB, IMR90  lung fibroblasts; assay type: cell-based, human; details: IMR90 immortalized lung fibroblasts
# Method: as §1
# (§3) Adherent cells (HeLa, A549, BT549, and IMR90) were added into 96-well plates (5,000 cells/well for HeLa cell line; 2,000 cells/well for A549, BT549, and IMR90 cell lines) in 100 μL media and were allowed to adhere for 2-3 hours. Compounds were solubilized in DMSO as 100× stocks, added directly to the cells (100 μL final volume), and tested over a range of concentrations (1 nM to 10 μM) in triplicate (1% DMSO final) on a half-log scale. DMSO and cell-free wells served as the live and dead control, respectively. […] Briefly, media was removed from the plate, and cells were fixed by the addition of 100 μL cold 10% trichloroacetic acid in water. After incubating at 4° C. for 1 h, the plates were washed in water and allowed to dry. Sulforhordamine B was added as a 0.057% solution in 1% acetic acid (100 μL), and the plates were incubated at room temperature for 30 min, washed in 1% acetic acid, and allowed to dry. […] IC50 values were determined from three or more independent experiments using TableCurve (San Jose, Calif.).
# [3] = system: synchronized U-937 cells; assay: Cell cycle arrest in thymidine-synchronized U-937 cells; assay type: cell-based, human; details: 16 hours, PI, flow cytometry
# Method: Samples were fixed, treated with an RNAse, stained with PI, and analyzed by flow cytometry. Taxol, a microtubule stabilizer, was used as a positive control. Error bars represent standard deviation of the mean, n=3. * p<0.01. PI=propidium iodide.
# U-937 cells were split to 50% confluency (250,000 cells/mL) and treated with 2 mM thymidine for 10 hours. The cells were then pelleted (500 g, 3 minutes) and washed with PBS before being resuspended in thymidine-free media and allowed to recover for 13 hours. The cells were then re-blocked with 2 mM thymidine for 10 hours, and then washed with PBS as before and resuspended in media (250,000 cells/mL).
# DMSO stocks of compounds were added to a 24-well plate in triplicate (0.2% DMSO final), after which 1 mL of the prepared cell suspension was added. Following a 16 h incubation, the cell suspensions were transferred to 2 mL tubes and pelleted (600 g, 3 min). The media was removed by aspiration, and the cells were fixed with 0.5 mL of ice cold 70% ethanol with vortexing. The samples were fully fixed at −20° C. for 3 hours. The samples were then pelleted (1000 g, 5 min) and the supernatant was removed via aspiration. […] Prior to reading, the samples were taken up in 150 μL of 50 μg/mL propidium iodide in PBS and transferred to flow cytometry tubes. Samples were analyzed based on whole, single cells.
# [4] = system: U-937 cells; assay: Apoptosis in U-937 cells with Annexin V-FITC and propidium iodide; assay type: cell-based, human; details: 21 hours, flow cytometry
# Method: FIG. 3. […] Analysis of phosphatidylserine exposure and propidium iodide inclusion at 21 hours in U-937 cells. Compounds were tested at indicated concentrations and STS was used as a positive control for apoptosis. Samples were analyzed by flow cytometry for the relative timing of phosphatidylserine exposure relative to PI inclusion. FITC=fluorescein isothiocyanate; PI=propidium iodide; STS=staurosporine.
# DMSO stocks of compounds were added to a 24-well plate in singlicate (0.2% DMSO final). […] Following treatment, the cell suspensions were transferred to flow cytometry tubes and pelleted (500 g, 3 min). The media was removed by aspiration, and cells were resuspended in 200 μL AnnV binding buffer (10 mM HEPES, pH 7.4, 140 mM NaCl, 2.5 mM CaCl2) with 5 μg/mL PI and 1:90 dilution of AnnV. Samples were analyzed using flow cytometry.
# [5] = system: blood cancer cells; assay: Activity against human blood cancer cell lines; assay type: cell-based
# Method: Based on the surprising and exceptional potency of (−)-agelastatins A (1) and D (4) against U-937 cells relative to the other cell lines tested, five additional blood cancer cell lines were tested for their sensitivity to the agelastatin alkaloids. These cell lines spanned a variety of cancer types (CEM, acute lymphoblastic leukemia; Jurkat, acute T-cell leukemia; Daudi, Burkitt's lymphoma; HL-60, acute promyelocytic leukemia; CA46, Burkitt's lymphoma). After a 48-hour incubation, the ability of (−)-agelastatins A-F (1-6) to induce cell death was evaluated. […] The same trends in potency observed for the various agelastatins with the general cell panel (Table 3) were also observed.
# In a 96-well plate, compounds were pre-added as DMSO stocks (1% final) in triplicate to achieve final concentrations of 1 nM to 10 μM on a half log scale. DMSO and cell-free wells served as the live and dead control, respectively. […] After 48 h, cell viability was assessed by adding 20 μL of a PMS/MTS solution (A. H. Cory, T. C. Owen, J. A. Barltrop, J. G. Cory, Cancer Commun., 1991, 3, 207) to each well, allowing the dye to develop at 37° C. until the live control had processed MTS, and reading the absorbance at λ=490 nm. IC50 values were determined from three or more independent experiments using TableCurve (San Jose, Calif.).
# [6] = system: CA46; assay: 48-hour IC50 by MTS, CA46 Burkitt's lymphoma cells; assay type: cell-based, human
# Method: as §1, §2
# [7] = system: CEM; assay: 48-hour IC50 by MTS, CEM acute lymphoblastic leukemia cells; assay type: cell-based, human
# Method: as §1, §2
# [8] = system: HeLa; assay: 48-hour IC50 by SRB, HeLa cervical carcinoma cells; assay type: cell-based, human
# Method: as §1, §3
# [9] = system: A549; assay: 48-hour IC50 by SRB, A549 non-small cell lung carcinoma cells; assay type: cell-based, human
# Method: as §1, §3
# [10] = system: BT549; assay: 48-hour IC50 by SRB, BT549 breast carcinoma cells; assay type: cell-based, human
# Method: as §1, §3
structure (smiles),measurement,setting,value
"CN1C(=O)N[C@H]2[C@@H]3NC(=O)c4ccc(Br)n4[C@@H]3C[C@]21O [(−)-1, (−)-agelastatin A]",IC50,[1],20 ± 3 nM
same,IC50,[2],1110 ± 350 nM
same,G2/M cell cycle arrest,[3],dose-dependent G2/M cell cycle arrest
same,apoptosis (phosphatidylserine exposure and propidium iodide inclusion),[4],induced dose-dependent apoptosis
same,"sensitivity of five additional blood cancer cell lines, in words","[5]; CEM, Jurkat, Daudi, HL-60, CA46, 48-hour incubation",remarkable sensitivity
same,IC50,"[5]; range over blood cancer cell lines, read-out: potency against blood cancer cells",20 to 190 nM
same,IC50,[6],187 ± 71 nM
same,IC50,[7],20 ± 2 nM
same,IC50,[8],708 ± 90 nM
same,IC50,[9],1050 ± 140 nM
same,IC50,[10],278 ± 76 nM
